Results on four compounds are retold here after patent US20250101052A1, “COMPOUND FOR EGFR KINASE INHIBITOR, COMPOSITION, AND USE THEREOF” (INNOVATION INSTITUTE FOR ARTIFICIAL INTELLIGENCE IN …, priority 2021, published 2025).

Data set [1] concerns BaF3-EGFR^L858R/T790M/C797S cells. Nature of the data set: BaF3 cell proliferation inhibition experiment (CCK-8). In kind it is cell-based. Particulars: Ba/F3 EGFR-L858R, 72 hours.
The test system of a further data set is A431 cells. The experiment in a line: A431 cell proliferation inhibition (SRB). In kind it is cell-based. Particulars: Homo sapiens, A-431, wild-type EGFR, 72 hours.
Data set [2] can be described thus: Detection of oral plasma exposure in rats. In kind it is in vivo. Particulars: rat, SD rats, p.o. 10 mg/kg. The procedure: Detection of oral plasma exposure in rats: The compounds of the present invention have good oral in-vivo exposure in rats
After a single dose of 10 mg/kg oral administration of the compound to be tested in SD rats, blood samples were collected at different time points.
Standard curve and quality control sample preparation processing: The mixed reserve solution of the compound to be tested was taken and diluted with 50% methanol water into standard working solutions containing respective compounds with concentrations of 20, 40, 100, 200, 400, 1000, 2000, 4000, 10000, and 20000 ng/mL, as well as 60, 600, and 16000 ng/mL quality control working solutions. […] of a blank matrix was taken. […] of the standard curve working solutions and the quality control working solutions were added to prepare standard curves containing respective compounds with concentrations of 1.00, 2.00, 5.00, 10.00, 20.00, 50.00, 100.00, 200.00, 500.00, and 1000.00 ng/mL, as well as quality control samples with concentrations of 3.00, 30.00, and 800.00 ng/mL, respectively. 400 μL of acetonitrile (containing internal standard Verpmil of 2 ng/mL) was added. After vortex oscillation at 700 rcf for 10 minutes, centrifugation was conducted at 3300 rcf at 4° C. for 10 minutes. The supernatant was taken for LC-MS/MS analysis.
Unknown sample preparation processing: 50 μL of the sample to be tested was taken. 400 μL of acetonitrile (containing internal standard Verpmil of 2 ng/mL) was added. After vortex oscillation at 700 rcf for 10 minutes, centrifugation was conducted at 3300 rcf and 4° C. for 10 minutes. The supernatant was taken for LC-MS/MS analysis.

For `CCc1cc(Nc2ncc(Cl)c(Nc3ccc(C)c(C)c3P(C)(C)=O)n2)c(OC)cc1N1CCC(N2CCN(C)CC2)CC1` [Comparative Compound A, reference compound], the IC50 (in general, the concentration needed to halve the response being measured) stood at 47.3 nM in data set [1] and 207 nM in the data set with A431 cells.

`CCc1cc(Nc2ncc(Cl)c(Nc3ccc(C)c(C)c3P(C)(C)=O)n2)c(OC)cc1N1CCC2(CC1)CC(N(C)C)C2` [Compound 6, (6-((5-chloro-2-((4-(2-(dimethylamino)-7-azaspiro[3.5]nonan-7-yl)-5-ethyl-2-methoxyphenyl)amino)pyrimidin-4-yl)amino)-2,3-dimethylphenyl)dimethylphosphine oxide]: the 50% inhibitory concentration (IC50) in data set [1] stood at 67.6 nM. This compound also gave a half-inhibitory concentration (IC50) in the data set with A431 cells of more than 1000 nM. Besides, in data set [2], the area under the curve AUC(0-t) (as a rule, exposure summed from dosing to a finite time, without extrapolation to infinity) was found to be 13800 ng·h/mL; the peak concentration (Cmax) (usually the peak of the concentration-time curve) was 866 ng/mL; the time of peak concentration (Tmax) (in general, the time at which the peak concentration occurs) was 8 h; the half-life (in general, the time needed for the level to fall by half in the phase considered) is 9.72 h. Besides, in data set [2] (read-out: AUCINF—obs), the AUC(0-inf) came out at 17700 ng·h/mL.

In data set [1], `CCc1cc(Nc2ncc(Cl)c(Nc3ccc(C)c(C)c3P(C)(C)=O)n2)c(OC)cc1N1CC2(CCN(C)CC2)C1` [Compound 24, (6-((5-Chloro-2-((5-ethyl-2-methoxy-4-(7-methyl-2,7-diazaspiro[3.5]non-2-yl)phenyl)amino)pyrimidin-4-yl)amino)-2,3-dimethylphenyl)dimethylphosphine oxide] yielded an IC50 of 43.3 nM. In the data set with A431 cells, this compound gave an IC50 of more than 1000 nM. Moreover, in data set [2], the AUC(0-t) came out at 7870 ng·h/mL, the peak level (Cmax) was 505 ng/mL, the Tmax worked out at 9 h and the half-life is 9.48 h.

Compound `CCc1cc(Nc2ncc(Cl)c(Nc3ccc(C)c(C)c3P(C)(C)=O)n2)c(OC)cc1N1CCC(N2C[C@H]3CC[C@@H](C2)N3C)CC1` [Compound 51, (6-((5-chloro-2-((5-ethyl-2-methoxy-4-(4-((1R,5S)-8-methyl-3,8-diazabicyclo[3.2.1]octan-3-yl)piperidin-1-yl)phenyl)amino)pyrimidin-4-yl)amino)-2,3-dimethylphenyl)dimethylphosphine oxide] yielded a 50% inhibitory concentration (IC50) in data set [1] of 131 nM. The same compound had a 50% inhibitory concentration (IC50) in the data set on A431 cells of 745 nM. Besides, in data set [2], the AUC(0-t) came out at 20700 ng·h/mL, the peak level (Cmax) was 1220 ng/mL, the time to peak (Tmax) worked out at 4 h and the half-life was 9.47 h.
